Structures can show the parent of a compound that is named as a salt. Where two headings read alike, the source gives them in different places.
Legend:
flank organ hair growth = test: Golden Syrian Hamster Assay; assay type: in vivo; settings: for % Inhibition: hair mass vs vehicle side; for Treated Side: hair mass
Excerpt: Golden Syrian Hamster Assay
Male intact Golden Syrian hamsters are considered acceptable models for human beard hair growth in that they display oval shaped flank organs, one on each side, each about 8 mm. in major diameter. These organs produce fine light colored hair typical of the animal pelage found on the body. In response to androgens the flank organs produce dark coarse hair similar to male human beard hair. To evaluate the effectiveness of a composition, the flank organs of each of a group of hamsters are depilated by applying a thioglycolate-based chemical depilatory (Surgex) and/or shaved. To one organ of each animal 10 μl of vehicle alone once a day is applied, while to the other organ of each animal an equal amount of vehicle containing a survivin inhibitor. After thirteen applications (one application per day for five days a week), the flank organs are shaved and the amount of recovered hair (hair mass) from each is weighed. For certain experiments, where indicated, the treatment period was for less than 13 applications. The reduced treatment period allowed for determination of onset in activity. Percent-reduction of hair growth is calculated by subtracting the hair mass (mg) value of the test compound treated side from the hair mass value of the vehicle treated side; the delta value obtained is then divided by the hair mass value of the vehicle treated side, and the resultant number is multiplied by 100. Visual evaluations comparing hair regrowth between the drug treated and the vehicle control site were made generally on day-8, day-15 and on day-19. These observations provide an identification of onset in activity (and thus efficacy).

human hair follicles = test: Human Hair Follicle Growth Assay; assay type: cell-based; settings: for Length Increase (mm): follicle length day 6 minus day 0
Excerpt: Human Hair Follicle Growth Assay
Human skin was obtained from a plastic surgeon as a by-product of face-lift procedures. The skin samples generally consisted of haired and non-haired regions taken from the area of the face. Immediately after removal, the skin was placed in Williams E medium containing antibiotics, and kept refrigerated. The Williams E medium was commercially obtained (Life Technologies, Gaithersburg, Md.), and has been formulated with essential nutrients for maintaining viability of hair follicle in an in-vitro environment.
Human hair follicles in growth phase (anagen) were isolated from face-lift tissue under a dissecting scope using a scalpel and watchmakers forceps. The skin was sliced into thin strips exposing 2-3 rows of follicles that could readily be dissected. Follicles were placed into 0.5 ml Williams E medium supplemented with 2 mM L-glutamine, 10 ug/ml insulin, 10 ng/ml hydrocortisone, 100 units penicillin, 0.1 mg/ml streptomycin and 0.25 μg/ml amphotericin B. The follicles were incubated in 24 well plates (1 follicle/well) at 37° C. in an atmosphere of 5% CO2 and 95% air. Hair follicle images were taken in the 24-well plates under the dissecting scope under a power of 20×. Hair follicle lengths were measured on day 0 (day follicles were placed in culture) and again on day 6-7. In this system follicles appear to fully differentiate into a hair fiber and increase in length at a rate similar to the human, in vivo, rate of about 0.3 mm/day. For testing survivin inhibitors, the inhibitor was included in the culture medium from time 0 and remained in the medium throughout the course of the experiment.

survivin = test: Determination of Hair Follicle Survivin Protein Content by ELISA; assay type: cell-based, human; settings: for Survivin Protein: human hair follicles in vitro, normalized to total protein; for Inhibition: survivin protein level
Method: Determination of Hair Follicle Survivin Protein Content by ELISA (Enzyme-Linked Immunosorbent Assay)
For protein extraction, 5-micron cryosections of the hair follicles were collected into the centrifuge tubes, followed by short time incubation with the lysis buffer (BD Bioscience; CA; Cat #K 1848-1). The solutions were centrifuged for 30 minutes at 14,000×g at 4° C., and the supernatants were frozen and stored at −80° C. For quantification of survivin protein, a commercially available ELISA kit was used, following the manufacturer's instructions (Assay Design Inc; Michigan; Cat # 900-111). Total protein concentration in the extracts was determined by using the bicinchoninic acid (BCA) protein assay (Pierce Chemical Company, Rockford; Cat #23225). The readings of optical density were performed, using EL340 Bio Kinetics microplate reader (Bio-Tek Instruments Inc). The survivin levels (in pg/ml) were normalized against the total amount of protein (in ug/ml) extracted from hair follicles.

[1] = 5% topical, vehicle 20% propylene glycol in ethanol
[2] = 10% topical, vehicle 10% DMSO in ethanol, water, emerest, and propylene glycol

In the case of CC(Cc1ccc(OC(=O)CN(C)C)c(OC(=O)CN(C)C)c1)C(C)Cc1ccc(OC(=O)CN(C)C)c(OC(=O)CN(C)C)c1 [G4N, meso-1,4-bis[(3,4-dimethylaminoacetoxy)phenyl]-(2R,3S)-dimethylbutane hydrochloride salt], the “% Inhibition” value (flank organ hair growth; [1]) was 48 ± 6%, the “Treated Side” value (flank organ hair growth; [1]) was 1.17 ± 0.2 mg and the “Length Increase (mm)” value (human hair follicles; G4N 20 uM in culture medium) was 1.19 ± 0.11 mm. The “Length Increase (mm)” value (human hair follicles; G4N 50 uM in culture medium) was 0.61 ± 0.14 mm, the inhibition at 20 µM (human hair follicles; Homo sapiens, 144 h, 20 uM, hair growth vs control, day 6, read-out: % Inhibition) was 30% and the inhibition at 50 µM (human hair follicles; Homo sapiens, 144 h, 50 uM, hair growth vs control, day 6) was 64%.

With CC[C@H](CO)Nc1nc(NCc2ccccc2)c2ncn(C(C)C)c2n1 [Roscovitine, (R)-2-[[9-(1-methylethyl)-6-[(phenylmethyl)amino]-9H-purin-2-yl]amino]-1-butanol] the “Survivin Protein” value (survivin; 15 uM Roscovitine) was 0.03 pg/mg, the “Survivin Protein” value (survivin; 20 uM Roscovitine) was 0.007 pg/mg and the Inhibition (survivin; 15 uM Roscovitine vs control) was 62%. For the same compound, the Inhibition (survivin; 20 uM Roscovitine vs control) was 95%, the “Length Increase in mm” value (human hair follicles; 10 uM Roscovitine in culture medium) was 0.97 ± 0.13 mm and the “Length Increase in mm” value (human hair follicles; 15 uM Roscovitine in culture medium) was 0.5 ± 0.1 mm. The “Length Increase in mm” value (human hair follicles; 20 uM Roscovitine in culture medium) was 0.05 ± 0.05 mm, the inhibition at 10 µM (human hair follicles; Homo sapiens, 10 uM Roscovitine vs control) was 42% and the inhibition at 15 µM (human hair follicles; Homo sapiens, 15 uM Roscovitine vs control) was 60%. For the same compound, the inhibition at 20 µM (human hair follicles; Homo sapiens, 20 uM Roscovitine vs control, read-out: Hair Growth Inhibition) was 80%.

COc1cc([C@H]2Oc3cc([C@H]4Oc5cc(O)cc(O)c5C(=O)[C@@H]4O)ccc3O[C@@H]2CO)ccc1O [Silibinin, (2R,3R)-2-[(2R,3R)-2,3-dihydro-3-(4-hydroxy-3-methoxyphenyl)-2-(hydroxymethyl)-1,4-benzodioxin-6-yl]-2,3-dihydro-3,5,7-trihydroxy-4H-1-benzopyran-4-one] was tested, and the “% Inhibition” value (flank organ hair growth; [2]) was 62.1 + 5.5% and the “Treated Side” value (flank organ hair growth; [2]) was 0.77 ± .14 mg.
